Here are results for one substance from patent publication US20190046627A1, “USE OF A GNP-LLO91-99 COMPLEX FOR THE TREATMENT AND PREVENTION OF CANCER” (FUNDACIÓN INSTITUTO DE INVESTIGACIÓN MARQUES DE VALDECILLA, priority 2016, published 2019).

Entries after “also recorded” stand apart in the source; their conditions may differ.

The test system of one experiment is murine melanoma B16OVA. Put plainly: Prevention of tumor growth, intraperitoneal melanoma after preventive treatment (Example 5). It counts as in vivo, mice. The settings on record: 50 μg/ml intraperitoneal 7 days before i.p. B16OVA, adult C57BL/6. As to the method: For the comparative study of the prevention of tumor growth in adults between the therapy of the invention and known anti-tumor therapies, the following therapies (50 μg/ml) were inoculated in female adults of the C57BL/6 strain in an intraperitoneal manner: LLO91-99 (only peptide from listeriolysin O of Listeria monocytogenes, LLO91-99), GNP (empty gluconanoparticles), GNP-LLO91-99 (gluconanoparticles synthesized with the peptide from listeriolysin O of Listeria monocytogenes, LLO91-99), GNP-GAPDH1-22 (nanoparticles synthesized with the peptide from glyceraldehyde-3-phosphate dehydrogenase of Listeria monocytogenes, GAPDH1-22) or saline (NT).
Following 7 days preventative post-treatment, the tumors were established following inoculation with 5×10^6 cells of murine melanoma B16OVA in an intraperitoneal manner. Following 7 days post-established of the tumor, the mice were sacrificed and the recovered tumors were measured by means of a gauge and the tumors were analyzed by means of immunohistochemical staining. The results of the reduction of the tumor growth and their intraperitoneal position are shown in FIG. 4A and FIG. 4B and the results of the analysis of the immunohistochemical staining in FIG. 4C.

In experiment [1] the test system is murine melanoma B16F10. Put plainly: Reduction of the size of the tumor in newborns (Example 6). Particulars: 9-day old Balb/c mice, s.c. B16F10 established 5 days, 50 μg/ml in the tumors for 5 days. It counts as in vivo. As to the method:
For the study of the reduction of the size of the tumor in newborns making use of different therapies and their comparison with that of the invention, 5×10^5 cells of murine melanoma B16F10 were inoculated in a subcutaneous manner in the interscapular area of 9-day old female mice of the Balb/c strain.
(§1) Following 5 days post-inoculation, 50 μg/ml of the following therapies were inoculated in the tumors for 5 days: LLO91-99 (only peptide from listeriolysin O of Listeria monocytogenes, LLO91-99), GNP (empty gluconanoparticles), GNP-LLO91-99 (gluconanoparticles synthesized with the peptide from listeriolysin O of Listeria monocytogenes, LLO91-99), GNP-GAPDH1-22 (nanoparticles synthesized with the peptide from glyceraldehyde-3-phosphate dehydrogenase of Listeria monocytogenes, GAPDH1-22). As a control, a vector previously used in therapy was also included, dendritic cells loaded with the LLO91-99 (1×10^5 DC-LLO91-99) peptide.
(§2) Following this treatment, the mice were sacrificed and the tumors recovered, measuring their size with a gauge.

Experiment [2] has as its system murine melanoma B16F10. Kind of experiment: Reduction of the size of the tumor, subcutaneous murine melanoma in adult mice (Example 2). Particulars: adult C57BL/6 mice, s.c. B16F10 established 7 days, 50 μg/ml inoculated in the tumors for 5 days. It counts as in vivo. As to the method:
For the study of the reduction of the size of the tumor making use of different therapies and their comparison with that of the invention, 1×10^6 cells of murine melanoma B16F10 were inoculated in a subcutaneous manner in the left ventral flank of 8-12-week old female mice of the C57BL/6 strain.
as §1, with “After 7” for “Following 5”, “GAPDH1-22) or no particle (NT). Dendritic cells loaded with the LLO91-99 (1×10^6 DC-LLO91-99) peptide were also included as” for “GAPDH1-22). As”, “therapy.” for “therapy was also included, dendritic cells loaded with the LLO91-99 (1×10^5 DC-LLO91-99) peptide.”
as §2

For “H-Gly-Tyr-Lys-Asp-Gly-Asn-Glu-Tyr-Ile-OH (H-GYKDGNEYI-OH) [LLO91-99, only peptide from listeriolysin O of Listeria monocytogenes, LLO91-99]”, the “preventative / therapeutic effect on the melanoma (in words)” value with murine melanoma B16OVA is “failed to achieve any therapeutic effect”. For the same substance, the “therapeutic effect on the melanoma in newborns (in words)” value in the experiment on murine melanoma B16F10 [1] was “failed to achieve any therapeutic effect”. The “therapeutic effect on the melanoma (in words)” value in the experiment with murine melanoma B16F10 [2] is “do not achieve any therapeutic effect; also recorded: failed to achieve any therapeutic effect”.
